From US5968791A, “Plant lysophosphatidic acid acyltransferases” (Calgene, Inc., priority 1995, dated 1999)
Blank lines part the entries; values can stand above or below the compound they belong to.

What was measured:
[1] = test system: coconut LPAAT; test: LPAAT activity assay, coconut P2 membrane preparation; format: biochemical, Cocos nucifera; settings: coconut P2 preparation, same assay
Procedure: To assay for LPAAT activity, the sample is incubated with lysophosphatidic acid (LPA) and acyl-coenzyme A (acyl-CoA) substrates in buffered solution. The acyl substituents of the two substrates are chosen to correspond with the specificity of the enzyme being measured. […] LPAAT activity is measured as the amount of radioactive product formed in a given assay time. The PA product is radioactive as a result of the transferred radiolabeled acyl group at the central carbon atom of the molecule, and the quantity of PA formed may be determined by measuring radioactivity of the PA fraction. […]
To stop the assay, 0.25 ml of 1M KCl in 0.2M H3 PO4 is added to the vial. […] The total radioactivity extracted into the organic phase is determined by liquid scintillation counting; a 100 μl sample of the organic phase is transferred to a 20 ml scintillation vial and allowed to dry, and scintillation fluid (3-5 ml) is added to the vial. The radioactivity of the sample, after subtraction of the "minus-enzyme" or "minus-LPA" radioactivities, is taken as an approximate indication of the amount of PA formed in the LPAAT-catalyzed reaction and therefore of LPAAT activity. […]

[2] = target: T1, coconut LPAAT (Cocos nucifera, UniProt Q42670); test: as above; format: biochemical; set-up: white endosperm tissue lining the inside of the endocarp can be dissected and collected; from tissue; host or cells: immature coconut endosperm, P2 membrane fraction
T1 sequence (Q42670 1-308): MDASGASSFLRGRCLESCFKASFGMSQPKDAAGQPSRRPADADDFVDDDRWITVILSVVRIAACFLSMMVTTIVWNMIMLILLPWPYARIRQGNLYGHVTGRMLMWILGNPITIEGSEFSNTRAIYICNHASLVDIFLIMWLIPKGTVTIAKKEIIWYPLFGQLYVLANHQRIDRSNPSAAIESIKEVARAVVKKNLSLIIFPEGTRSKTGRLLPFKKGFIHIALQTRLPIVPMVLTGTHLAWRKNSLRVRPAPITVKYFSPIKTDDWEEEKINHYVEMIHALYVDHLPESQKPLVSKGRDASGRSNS
Procedure: (§1) To assay for LPAAT activity, the sample is incubated with lysophosphatidic acid (LPA) and acyl-coenzyme A (acyl-CoA) substrates in buffered solution. The acyl substituents of the two substrates are chosen to correspond with the specificity of the enzyme being measured. For example, to measure activity of an LPAAT having preference for medium-chain substrates, lauroyl-LPA (lauroyl-lysophosphatidic acid) and lauroyl-CoA may be used, to measure activity of an LPAAT preferring longer-chain acyl groups, oleoyl-LPA and oleoyl-CoA may be used, to measure activity of an LPAAT preferring very-long chain substrate, erucyl-LPA and erucyl-CoA may be used, and so on, depending upon the type of LPAAT to be tested. The acyl group of one substrate is radioactively labeled in order to detect the product formed. In the examples which follow the acyl substituent of the acyl-CoA substrate is radiolabeled with ^14 C in the carboxyl group. LPAAT activity results in transfer of this acyl group from the acyl-CoA "donor" substrate to the LPA "acceptor" substrate, converting the latter into the product, phosphatidic acid (PA). LPAAT activity is measured as the amount of radioactive product formed in a given assay time. The PA product is radioactive as a result of the transferred radiolabeled acyl group at the central carbon atom of the molecule, and the quantity of PA formed may be determined by measuring radioactivity of the PA fraction. For this measurement, the PA is first separated from the acyl-CoA substrate by solvent partitioning, or by thin-layer chromatography (TLC).
(§2) 20 μl of the sample to be assayed for LPAAT activity is mixed with 217.5 μl of an assay ingredient mixture in a 4-ml, screw-cap vial. […] The incubation takes place in a water bath at 30° C., for 20-30 minutes.
(§3) To stop the assay, 0.25 ml of 1M KCl in 0.2M H3 PO4 is added to the vial. At this point, 40 μl BSA (bovine serum albumin, fraction V) at 1 mg/ml are added, followed by 0.75 ml of a solution of 67 μg/ml unlabeled PA (acting as a "carrier" to facilitate partitioning) in chloroform/methanol (2:1, v/v). The chain lengths of the PA acyl groups are chosen to correspond to those used in the assay substrates. Upon thorough mixing of these components the radiolabeled PA product of the LPAAT reaction partitions into the organic phase and away from the unreacted acyl-CoA and LPA. The vial is centrifuged briefly at low speed to facilitate the separation of organic (lower) and aqueous (upper) phases. The aqueous phase is then removed and discarded. The total radioactivity extracted into the organic phase is determined by liquid scintillation counting; a 100 μl sample of the organic phase is transferred to a 20 ml scintillation vial and allowed to dry, and scintillation fluid (3-5 ml) is added to the vial. The radioactivity of the sample, after subtraction of the "minus-enzyme" or "minus-LPA" radioactivities, is taken as an approximate indication of the amount of PA formed in the LPAAT-catalyzed reaction and therefore of LPAAT activity.
A more accurate estimation of the LPAAT activity may be obtained by separating the PA product from these contaminants by TLC. The remaining organic phase is applied to a silica TLC plate. Ascending chromatography is carried out for 50 minutes, using the solvent mixture chloroform/pyridine/88% formic acid (50:30:7, v/v). After the plate has dried, the distribution of radioactivity is visualized and quantitated using an AMBIS radioanalytic imaging system (AMBIS Systems Inc., San Diego, Calif.). From prior application of standard lipid components the Rf of the PA is known. The radioactivity associated with the PA spot is expressed as a percentage of the total radioactivity of the assay sample loaded on the plate. This ratio provides an indication of the proportion of the scintillation counts which represent the PA product, and may be used to correct the counts to obtain the total PA radioactivity formed in the assay. […]

[3] = test system: LPCAT; test: LPCAT assay, coconut P2 preparation; format: biochemical, Cocos nucifera; settings: substrates 12:0-CoA+12:0-LPC
From the text: Lysophosphatidylcholine (LPC) acyltransferase (LPCAT) is an enzyme analogous to LPAAT, involved in the biosynthesis of membrane lipids (phosphatidylcholine and derivatives thereof) instead of storage oil. The possibility that the activity measured in the LPAAT assay is not true LPAAT, but rather an inefficient action of LPCAT on the LPAAT substrates, can be tested by direct assay for LPCAT. For example, the LPAAT activity of the coconut P2 preparation with the substrate combination 12:0-CoA+12:0-LPA is readily measurable, whereas the LPCAT activity of the same preparation with the substrates 12:0-CoA+12:0-LPC is undetectable. […] The activities on long-chain substrates may represent either a single acyltransferase enzyme able to use LPA and LPC acceptor substrates, or discrete "long-chain" LPAAT and LPCAT enzymes which are present together.

[4] = test system: bay LPAAT; test: LPAAT activity assay, California bay P2 membrane preparation; format: biochemical, Umbellularia californica; settings: P2 membrane preparation; acyl-CoA donor varied, acceptor 12:0-LPA
Procedure: To assay for LPAAT activity, the sample is incubated with lysophosphatidic acid (LPA) and acyl-coenzyme A (acyl-CoA) substrates in buffered solution. The acyl substituents of the two substrates are chosen to correspond with the specificity of the enzyme being measured. […] The acyl group of one substrate is radioactively labeled in order to detect the product formed. In the examples which follow the acyl substituent of the acyl-CoA substrate is radiolabeled with ^14 C in the carboxyl group. LPAAT activity results in transfer of this acyl group from the acyl-CoA "donor" substrate to the LPA "acceptor" substrate, converting the latter into the product, phosphatidic acid (PA). LPAAT activity is measured as the amount of radioactive product formed in a given assay time. The PA product is radioactive as a result of the transferred radiolabeled acyl group at the central carbon atom of the molecule, and the quantity of PA formed may be determined by measuring radioactivity of the PA fraction. For this measurement, the PA is first separated from the acyl-CoA substrate by solvent partitioning, or by thin-layer chromatography (TLC).

[5] = test system: Rapeseed LPAAT; test: LPAAT activity assay, rapeseed P2 membrane preparation; format: biochemical, Brassica napus; settings: acyl-CoA donor varied, acceptor 12:0-LPA
Procedure: as §1, §2, §3
A more accurate estimation of the LPAAT activity may be obtained by separating the PA product from these contaminants by TLC. The remaining organic phase is applied to a silica TLC plate. […] After the plate has dried, the distribution of radioactivity is visualized and quantitated using an AMBIS radioanalytic imaging system (AMBIS Systems Inc., San Diego, Calif.). From prior application of standard lipid components the Rf of the PA is known. The radioactivity associated with the PA spot is expressed as a percentage of the total radioactivity of the assay sample loaded on the plate. This ratio provides an indication of the proportion of the scintillation counts which represent the PA product, and may be used to correct the counts to obtain the total PA radioactivity formed in the assay.
A P2 membrane homogenate from immature embryos of developing rapeseed (Brassica napus) seeds is prepared essentially as described above, except as noted below.

[6] = target: T2, LPAAT of transformant 5511-5 (Cocos nucifera, UniProt Q42670); test: LPAAT acyl-CoA specificity, P2 preparation of LPAAT-transformed line 5511-5; format: biochemical, Rapeseed; settings: acyl-CoA donor varied at 5 μM, acceptor 12:0-LPA; 30 minute reaction
T2 construct: crude P2 membranes, host LPAAT also present
T2 sequence (Q42670 1-308): T1 sequence (Q42670 1-308)
Procedure: (§4) Detailed acyl-CoA chain-length specificity analysis of control P2 preparations and LPAAT-transformed line 5511-5 were determined as described above, using the original 30 minute reaction time. The acyl-CoA substrates for this analysis are present in methanol, and thus the assay also had the following modifications. The first solution placed in the assay vial was the volume of each radiolabeled acyl-CoA required for 5 μM final assay concentration. […] After mixing to redissolve the acyl-CoA off the vial wall, the reaction is started by addition of 25 μl of a 5-fold diluted P2 preparation and continued as before. Acyl-CoA substrates used in this analysis were 8:0, 10:0, 12:0, 14:0, 16:0, 18:0, and 18:1. The acceptor substrate in these assays was 12:0-LPA.

[7] = test system: control rapeseed LPAAT; test: LPAAT acyl-CoA specificity, control P2 preparation; format: biochemical; settings: acyl-CoA donor varied at 5 μM, acceptor 12:0-LPA; 30 minute reaction
Procedure: as §4

[8] = target: T1, coconut LPAAT; test: Acyl-CoA specificity of coconut LPAAT expressed in E. coli (pCGN5505), membrane fractions; format: biochemical; set-up: the SalI/BamHI fragment of pCGN5504 containing the entire coconut LPAAT encoding region; made in house; host or cells: E. coli BL21(DE3), membrane fractions; settings: acceptor 12:0-LPA
Procedure: The samples are centrifuged at 12,000 g for 15 minutes. The resulting supernatant fractions are centrifuged for two hours at 134,000 g, and the pelleted membranes suspended in 50 mM HEPES, 200 mM NaCl, 20% (w/v) glycerol, 5 mM β-mercaptoethanol, pH 7.5. Membrane fractions are assayed for acyl-CoA substrate specificities with 12:0-LPA and various acyl-CoA species as described in Example 1. Membrane preparations from cultures of E. coli and from immature coconut endosperm are combined with soybean phospholipids and diluted in 1M NaCl in Buffer A to simulate the pre-assay conditions of the solubilized enzyme.

Compound: 12:0-ACP: 12:0 acyl-ACP tested as LPAAT donor substrate
- hydrolysis by the P2 preparation [1]: not hydrolyzed
- utilization as LPAAT donor substrate instead of 12:0-CoA ([2]; coconut P2 preparation): will not utilize

Compound: CCCCCCCCCCCC(=O)OCC(O)COP(=O)([O-])OCC[N+](C)(C)C (stereo not drawn) [12:0-LPC, lauroyl-lysophosphatidylcholine]
- LPCAT activity [3]: undetectable

- Cpm PA Product, 5511-5 [6]: 2038 Cpm
- utilization by E. coli expressed coconut LPAAT [8]: less well utilized
- LPAAT Activity from Coconut ([2]; P2 membrane preparation, acyl-CoA donor varied, acceptor 12:0-LPA): 13 pmol PA formed/30 min assay
Compound: CCCCCCCCCCCCCCCCCC(=O)SCCNC(=O)CCNC(=O)[C@H](O)C(C)(C)COP(=O)(O)OP(=O)(O)OC[C@H]1O[C@@H](n2cnc3c(N)ncnc32)[C@H](O)[C@@H]1OP(=O)(O)O [18:0]
- LPAAT Activity from Bay [4]: 6 pmol PA formed/30 min assay
- LPAAT Activity from Rapeseed [5]: 21 pmol PA formed/30 min assay
- Cpm PA Product, Control [7]: 1514 Cpm
